# Experimental data taken from patent US5876715A, “Antibodies that bind novel carbohydrate ligands (myelorollins) that cause E-selectin dependent cell rolling, and uses thereof” (The Biomembrane Institute, priority 1996, dated 1999).
# Entries after “also recorded” stand apart in the source; their conditions may differ.
# Tested on: E-selectin-expressing CHO cells
# Assay: Rolling and adhesion of E-selectin-expressing CHO cells on ganglioside-coated beads under dynamic flow (parallel plate laminar flow chamber)
# Type: cell-based, Chinese hamster
# Details: for adhesion of E-selectin-expressing CHO cells / rolling and adhesion of E-selectin-expressing CHO cells / rolling of E-selectin-expressing CHO cells: dynamic flow conditions, shear stress 0.6-12 dynes/cm^2; for rolling and adhesion of E-selectin-expressing CHO cells at low ganglioside quantity: 0.05-0.1 ng ganglioside per spot (mixture 0.05 ng each), 1 μm beads (FIGS. 3B, 4A, 4B); for rolling and adhesion of E-selectin-expressing CHO cells at 100 ng ganglioside: 100 ng of single fraction or mixture of 50 ng each, 1 μm beads, 4.8 and 2.4 dynes/cm^2 (FIG. 3A)
# From the text: FIGS. 2A-2E show rolling and adhesion of E-selectin-expressing CHO cells to polystyrene beads coated with various gangliosides under dynamic flow conditions. Various poly-LacNac gangliosides were quantitatively adsorbed on beads affixed to glass microscope slides as described in the Materials & Methods section in the EXAMPLE. These polystyrene beads affixed on galss plates are resistant to dynamic flow. GSL coated on beads are therefore very stable in dynamic flow. Slides were blocked by placing 2% BSA in PBS at room temp for 1 hr, and assembled in a parallel-plate laminar-flow chamber. E-selectin-expressing CHO cells were freshly harvested and suspended in RPMI medium (1×10^5 cells/mL). The cell suspensions were placed in an infusion pump connected to the flow chamber, and infused into the assembly at various laminar flow rates. Cell movements were observed under phase-contrast microscope and recorded by videocassette recorder. Numbers of rolling cells (.smallcircle.) and adherent (nonrolling) cells (.circle-solid.), in at least 10 microscope fields, at four different shear stresses (dynes/cm^2; see abscissa), were plotted.
# Polystyrene latex beads ([…] or 1 μm) used as carriers of GSLs as above were suspended in ethanol. 1 μL aliquots of suspension were placed on precleaned and specially treated microscope slides (Labcraft Superfrost® Plus, Curtin Matheson Scientific, Houston, Tex.). Beads were distributed homogeneously on the glass surface within a circular spot with diameter about 1 cm. Slides were heated at 150° C. for 50 sec, which caused the beads to adhere strongly to the surface such that they could not be washed off by water stream at various velocities. Gangliosides dissolved in IHW at the same molar concentration were applied to latex beads affixed on the slides; namely, 1 μL aliquots containing 50-100 or 0.05-0.1 ng ganglioside were placed on the center of a circular spot. The ganglioside thus became affixed to the bead surface.
# Slides prepared as above, as they are or after treatment consisted of incubating said slides for at least an hour at room temperature with 3% BSA prewarmed at 37° C. and washing with PBS containing CA^2+ /Mg^2+ (i.e., PBS(+)) were placed in a parallel plate laminar flow chamber connected to an infusion pump (model 935, Harvard Apparatus, Cambridge, Mass.). The assembly, originally described by Lawrence et al. (Lawrence et al., 1990, Blood 75:227-237; Lawrence and Springer, 1991, Cell 65:859-873), simulates the flow shear stress present in physiological microvascular environments. A laminar flow with defined rate and wall shear stress is achieved by manipulation of the infusion pump, which is connected to the inlet of the flow chamber. A suspension of E- or P-selectin-expressing CHO cells (1×10^5 /mL in FIGS. 2A-2E, 2×10^5/ cells mL in FIG. 3A, 5×10^5 /cells mL in FIGS. 3B, 4A and 4B), freshly harvested from culture with EDTA, washed, and resuspended in 1% FCS-RPMI medium, was infused into the assembly at various laminar flow rates. Cell movements were observed under inverted phase-contrast microscope (Diaphot-TMD, Nikon) and recorded by time-lapse videocassette recorder. Cell rolling and adhesion were observed, and numbers of rolling and adherent cells during a 2 min period at shear stresses, from 0.6-12.0 dynes/cm^2 were counted from at least 10 fields on videotape. Wall shear stress (T) was calculated by the equation of Lawrence et al. (Lawrence et al., 1990 Blood 75:227-237; Lawrence et al., 1987, Blood 70: 1284-1290): T=3 μQ/2ba^2, where μ=coefficient of viscosity (1.0 cP), Q=volumetric flow rate (cm^3 /sec), a=half channel height (in this case, 5.7×10^-3 cm), and b=channel width (1.3 cm).
# 10, 13-1, and 14 (containing Str. 4-5, Str. 7-8, and Str. 9-12 in Table 1, respectively). […] 10 and 14, which have myelorollin structure and lack SLe^x epitope (FIG. 4). Polystyrene beads were affixed to glass microscope slides. Various gangliosides were coated as described in Materials & Methods. […]
Substance,adhesion of E-selectin-expressing CHO cells,rolling and adhesion of E-selectin-expressing CHO cells,rolling of E-selectin-expressing CHO cells,rolling and adhesion of E-selectin-expressing CHO cells at low ganglioside quantity (dynamic flow),rolling and adhesion of E-selectin-expressing CHO cells at 100 ng ganglioside (dynamic flow),further results
"VI^3 NeuAcV^3 FucIII^3 FucnLc6 Cer [SLe^x -Le^x, reference compound]","Low level of adhesion without rolling; also recorded: adherent, but not rolling; also recorded: significantly lower than for Fr. 13-1 or 14; also recorded: only weak adhesion compared to Fr. 10-1, 10-2, 13-1 and 14; also recorded: relatively weak adhesion compared to Fr. 10-1, 10-2, 13-1, and 14",weaker than myelorollin structures; also recorded: weaker than myeloglycan or myelorollin structures,not observed (or barely observed); also recorded: No rolling was observed,no rolling or adhesion; also recorded: no rolling and adhesion observed; also recorded: essentially no cell rolling and adhesion; also recorded: did not cause any E-selectin-dependent cell rolling or adhesion,–,"adhesion of E-selectin-expressing CHO cells (listed as Str. 3): did produce cell adhesion, but to a lesser extent than the myelorollin fractions; also recorded: lower level of adhesion; rolling of E-selectin-expressing CHO cells (listed as Str. 3): no cell rolling; rolling of E-selectin-expressing CHO cells (listed as sialyl Le^x -Le^x): No rolling was observed; rolling number (dynamic flow, 4 μm beads, every field at all shear stresses (FIG. 2A)): 0; number of cells adhered without rolling (dynamic flow, shear stresses 12 to 1.2 dynes/cm^2 (FIG. 6A)): less than 5 /field"
VIII^3 NeuAcIII^3 FucnLc8 Cer [Fr. 10-2],–,strong rolling and adhesion,–,still produced marked rolling and adhesion,comparable rolling and Vadhesion; also recorded: comparable to each other; also recorded: comparable adhesion,"rolling and adhesion of E-selectin-expressing CHO cells at 100 ng ganglioside (dynamic flow, listed as 10-2): comparable; rolling and adhesion of E-selectin-expressing CHO cells at low ganglioside quantity (dynamic flow, listed as 10-2): still produced marked rolling/adhesion"
VIII^3 NeuAcV^3 FucnLc8 Cer [Fr. 10-1],–,strong rolling and adhesion,–,did not,comparable rolling and Vadhesion; also recorded: comparable to each other; also recorded: comparable adhesion,"rolling and adhesion of E-selectin-expressing CHO cells at 100 ng ganglioside (dynamic flow, listed as 10-1): comparable"
X^3 NeuAcVII^3 FucV^3 FucnLc10 Cer [Fr. 13-1],–,–,more frequent at 4.8 and 2.4 than at 1.2 dynes/cm^2; also recorded: caused strong rolling,–,–,"shear stress at which plain rolling and rolling followed by adhesion was maximal / most clearly observed (dynamic flow, 12, 4.8, 2.4, 1.2 and 0.6 dynes/cm^2 (FIGS. 6A-6D)): 2.4 dynes/cm^2; shear stress at which rolling (rolling/adhesion) was highest (dynamic flow, ganglioside on 1 μm beads (FIGS. 2D, 2E)): 4.8 dynes/cm^2"
VI^3 NeuAcnLc6 Cer [Fr. 7],no cell adhesion,–,–,–,–,–
X^3 NeuAcVII^3 FucnLc10 Cer [Fr. 12-2],–,"lower than for Frs. 13-1 and 14 (FIGS. 2C and 2E), but comparable to SLe^x -Le^x; also recorded: lower than for Fr. 13-1 and 14 (FIG. 2C and FIG. 2E), but comparable to SLe^x -Le^x",–,–,–,"Number of E-selectin expressing cells adhered on myelorollin under dynamic flow, column 5 (0.6-1.2 dynes/cm^2, column head 5 (not explained)): 5 (±2); Number of E-selectin expressing cells adhered on myelorollin under dynamic flow, column 10 (0.6-1.2 dynes/cm^2, column head 10 (not explained)): 3 (±1); shear stress at which rolling was highest (dynamic flow, ganglioside on 4 μm beads (FIG. 2B)): 4.8 dynes/cm^2"
